Laboratory results taken from publication PMC9414233, “Iridoid Glycosides Isolated from Bellardia trixago Identified as Inhibitors of Orobanche cumana Radicle Growth” (Toxins, 2022).
Converted amounts (≈) assume the structure as drawn.

What was measured:
[1] = tested on: radicles of Orobanche crenata; set-up: method as in PMID 24044614; conditions: cited from earlier work
[2] = tested on: Orobanche cumana radicles; assay: Orobanche cumana radicle growth bioassay; type: in vivo; conditions: for inhibition at 100 µg/mL: 168 h; for inhibition at 100 µg/mL / inhibition of radicle growth: 100 μg/mL, 7 days, relative to control (GR24 + 2% DMSO), ± standard error
Description: Allelopathic effects of each B. trixago extracts and isolated compounds were tested on Orobanche radicle growth according to previous protocols. Seeds of Orobanche cumana, were surface-sterilized by immersion in 0.5% (w/v) NaOCl and 0.02% (v/v) Tween 20, for 5 min, rinsed thoroughly with sterile distilled water, and dried in a laminar airflow cabinet. Approximately 100 seeds of Orobanche seeds were placed separately on 9 mm-diameter glass fiber filter paper disks (GFFP) (Whatman International Ltd., Maidstone, UK), moistened with 50 μL of sterile distilled water, and placed in incubators at 23 °C for 10 days inside Parafilm-sealed Petri dishes, to allow seed conditioning. Then, GFFP disks containing conditioned Orobanche seeds were transferred onto a sterile sheet of filter paper and transferred to new 9 cm sterile Petri dishes. Stock solutions of each B. trixago extract and isolated metabolite were respectively dissolved in dimethyl sulfoxide and subsequently individually diluted to 100 μg/mL using an aqueous solution of GR24 (10^−6 M). The final concentration of dimethyl sulfoxide was 2% in all test treatments. For each assay, 50 μL aliquots of each sample were applied to GFFP discs containing conditioned Orobanche seeds. Triplicate aliquots of a treatment only containing GR24 and 2% dimethyl sulfoxide was used as a control. Treated seeds were incubated in the dark at 23 °C for 7 days and radicle growth was determined for each GFFP disc, using a stereoscopic microscope (Leica S9i, Leica Microsystems GmbH, Wetzlar, Germany). For the characteristic of radicle growth, the value used was the average of 10 randomly selected radicles per GFFP disc. The percentage of radicle growth inhibition of each treatment was then calculated relative to the average radicle growth of control treatment.

[3] = set-up: method as in doi:10.1076/phbi.37.4.318.5808, PMID 12036030; conditions: cited from earlier work
[4] = set-up: method as in doi:10.1076/phbi.37.4.318.5808; conditions: cited from earlier work
[5] = tested on: Raphidocelis subcapitata; assay: Algal growth inhibition test (ISO 8692:2012); type: in vivo; conditions: 72 h
Description: (§1) The ecotoxicological tests were carried out on green freshwater algae Raphidocelis subcapitata, macrophyte Lepidium sativum, water flea Daphnia magna, nematode Caenorhabditis elegans and bacterium Aliivibrio fischeri to expand the range of endpoints due to differences in species sensitivity and exposure. Testing on R. subcapitata was performed using as endpoint the algal growth inhibition after 72 h of exposure and was based on ISO 8692:2012 [65]. The algal density was determined by spectrophotometric analysis (DR5000, Hach Lange GbH, Weinheim, Germany). Ecotoxicity tests were carried out in triplicate, at 25 ± 1 °C with constant illumination of 6700 lux. Testing on L. sativum was performed according to ISO 11269-1:2012 [66] considering germination and root elongation as endpoint after 72 h. Seeds (n = 10) were exposed in triplicate in Petri dishes and incubated at 25 ± 1 °C in darkness. Daphnia magna test was conducted according to UNI EN ISO 6341:2013 [67] and the endpoint evaluated was the immobilization after 24 h. Daphnids (less than 24 h old) were exposed to the samples at 20 ± 2 °C, in darkness without feeding. Testing on C. elegans was carried out, with a few modifications, according to the ASTM E2172-01 Standard Method (2014) using the 24 h mortality endpoint. The test was performed using age-synchronous adult nematodes exposed at 20 °C to compound 4, without feeding. […]

[6] = tested on: Lepidium sativum; assay: whole plant or invertebrate; type: in vivo; conditions: 72 h, read-out: EC50 (germination and root elongation)
Description: as §1

[7] = tested on: Daphnia magna; assay: Daphnia magna immobilization test (UNI EN ISO 6341:2013); type: in vivo; conditions: 24 h
Description: as §1

[8] = tested on: Caenorhabditis elegans; assay: C. elegans 24 h mortality test (ASTM E2172-01); type: in vivo
Description: as §1

[9] = tested on: Aliivibrio fischeri; assay: Bioluminescence inhibition test (ISO 11348-3:2007, Microtox); type: in vivo; conditions: 0.5 h, 30 min
Description: as §1

[10] = tested on: Wistar rats; set-up: method as in PMID 23195582; conditions: cited from earlier work

O=C(O)c1ccccc1 [Compound 1, benzoic acid]
inhibitory activity on radicles [1]: moderate inhibitory activity

OCC1=CC[C@@H]2C=CO[C@@H](O[C@@H]3O[C@H](CO)[C@@H](O)[C@H](O)[C@H]3O)[C@H]12 [Compound 2, bartsioside]
inhibition at 100 µg/mL [2]: 61.1 ± 1.5%

OCC1=C[C@@H](O)[C@@H]2C=CO[C@@H](O[C@@H]3O[C@H](CO)[C@@H](O)[C@H](O)[C@H]3O)[C@H]12 [Compound 3, aucubin]
inhibition of radicle growth [2]: no significant inhibitory activity
DPPH scavenging activity [3]: no DPPH scavenging activity
antioxidant activity in β-carotene bleaching assay [4]: inactive

O=C(OCC1=C[C@@H](O)[C@@H]2C=CO[C@@H](O[C@@H]3O[C@H](CO)[C@@H](O)[C@H](O)[C@H]3O)[C@H]12)c1ccccc1 [Compound 4, melampyroside]
phytotoxicity observed on radicles ([2]; 100 µg/mL): some degree of phytotoxicity observed as darkening
inhibition at 100 µg/mL [2]: 72.6%
EC50 [5]: ≥ 100 µg/mL
EC50 [6]: ≥ 100 µg/mL
EC50 [7]: 33.3 µg/mL (≈ 73.8 µM)
EC50 [8]: 57.2 µg/mL (≈ 127 µM)
EC50 [9]: 76 µg/mL (≈ 169 µM)
DPPH scavenging activity [3]: no DPPH scavenging activity
antioxidant activity in β-carotene bleaching assay [4]: pro-oxidant
cardioactivity [10]: cardioactive

C=C1[C@H]2[C@H](O[C@@H]3O[C@H](CO)[C@@H](O)[C@H](O)[C@H]3O)OC=C(C(=O)OC)[C@H]2C[C@@H]1O [Compound 5, gardoside methyl ester]
inhibition of radicle growth [2]: no significant inhibitory activity

COC(=O)C1=CO[C@@H](O[C@@H]2O[C@H](CO)[C@@H](O)[C@H](O)[C@H]2O)[C@H]2[C@@H]1CC[C@]2(C)O [Compound 6, mussaenoside]
inhibition at 100 µg/mL [2]: 65.9 ± 2.9%
DPPH scavenging activity [3]: no DPPH scavenging activity
antioxidant activity in β-carotene bleaching assay [4]: antioxidant
